Results as given in ChEMBL document CHEMBL4428063, “Novel Pyrimidine Toll-like Receptor 7 and 8 Dual Agonists to Treat Hepatitis B Virus” (J Med Chem, 2016).
Active and inactive are the calls of the source. No cut-off for these calls is given here.

Experiments:
[1] = Plasma concentration in C57Bl/6 mouse infected with HBV genotype D at 5 mg/kg, po dosed once per week for 8 weeks administered 6 weeks after viral infection and measured on day 42 post 1 hr of dosage; assay type: ADME, organism-based; conditions: in vivo
[2] = Oral bioavailability in cynomolgus monkey at 9 mg/kg, measured after 24 hrs; assay type: ADME, organism-based, Macaca fascicularis; conditions: in vivo
[3] = target: T1, Toll-like receptor 8 (Homo sapiens) (UniProt Q9NR97); experiment: Agonist activity at human TLR8 expressed in HEK293 cells assessed as measured after 6 hrs by NF-kappaB luciferase reporter gene assay; assay type: cell-based
T1 sequence (whole entry): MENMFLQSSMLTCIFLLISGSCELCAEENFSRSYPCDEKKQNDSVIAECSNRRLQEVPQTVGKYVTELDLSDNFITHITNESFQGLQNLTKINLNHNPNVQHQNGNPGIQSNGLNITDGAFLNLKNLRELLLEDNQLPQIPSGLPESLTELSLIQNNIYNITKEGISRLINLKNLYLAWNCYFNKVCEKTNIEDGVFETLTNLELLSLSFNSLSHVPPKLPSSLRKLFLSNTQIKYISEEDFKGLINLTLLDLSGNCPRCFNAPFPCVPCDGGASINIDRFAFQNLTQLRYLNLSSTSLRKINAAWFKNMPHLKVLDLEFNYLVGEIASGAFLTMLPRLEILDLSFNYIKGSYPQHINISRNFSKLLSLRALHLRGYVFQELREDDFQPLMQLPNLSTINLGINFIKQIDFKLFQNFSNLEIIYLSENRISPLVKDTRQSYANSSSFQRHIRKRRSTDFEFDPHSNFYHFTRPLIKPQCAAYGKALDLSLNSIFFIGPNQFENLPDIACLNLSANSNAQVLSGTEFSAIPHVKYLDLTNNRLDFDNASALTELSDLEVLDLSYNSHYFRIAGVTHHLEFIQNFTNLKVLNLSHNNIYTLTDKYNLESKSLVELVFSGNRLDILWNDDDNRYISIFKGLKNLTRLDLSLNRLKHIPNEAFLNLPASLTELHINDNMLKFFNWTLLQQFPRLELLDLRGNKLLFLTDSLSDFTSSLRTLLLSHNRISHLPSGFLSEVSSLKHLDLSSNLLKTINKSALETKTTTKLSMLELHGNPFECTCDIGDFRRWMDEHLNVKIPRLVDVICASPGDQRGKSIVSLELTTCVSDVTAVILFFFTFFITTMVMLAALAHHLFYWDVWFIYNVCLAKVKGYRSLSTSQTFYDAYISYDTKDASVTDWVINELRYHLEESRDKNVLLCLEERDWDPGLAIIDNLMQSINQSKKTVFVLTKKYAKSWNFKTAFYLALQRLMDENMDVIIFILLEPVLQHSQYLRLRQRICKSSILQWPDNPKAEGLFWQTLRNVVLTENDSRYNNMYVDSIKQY

[4] = Tmax in Sprague-Dawley rat plasma at 10 mg/kg, po; assay type: ADME, organism-based
[5] = Solubility of the compound; assay type: physicochemical
[6] = Tmax in cynomolgus monkey plasma at 30 mg/kg, administered through oral gavage measured after 24 hrs; assay type: ADME, organism-based, Macaca fascicularis
[7] = Intrinsic clearance in human liver microsomes assessed per mg protein at 1 uM measured after 60 mins; assay type: ADME, Microsome; conditions: read-out: CLH
[8] = Tmax in cynomolgus monkey plasma at 3 mg/kg, administered through oral gavage measured after 24 hrs; assay type: ADME, organism-based, Macaca fascicularis
[9] = Tmax in Sprague-Dawley rat liver at 10 mg/kg, po; assay type: ADME, organism-based
[10] = Cmax in Sprague-Dawley rat liver at 10 mg/kg, po; assay type: ADME, organism-based; parameters: dose 10 mg/kg, route oral
[11] = target: T2, Toll-like receptor 1 (Homo sapiens) (UniProt Q15399); experiment: Agonist activity at wild-type human TLR1 expressed in HEK293 cells up to 25 uM measured after 6 hrs by NF-kappaB luciferase reporter gene assay; assay type: cell-based
T2 sequence (whole entry): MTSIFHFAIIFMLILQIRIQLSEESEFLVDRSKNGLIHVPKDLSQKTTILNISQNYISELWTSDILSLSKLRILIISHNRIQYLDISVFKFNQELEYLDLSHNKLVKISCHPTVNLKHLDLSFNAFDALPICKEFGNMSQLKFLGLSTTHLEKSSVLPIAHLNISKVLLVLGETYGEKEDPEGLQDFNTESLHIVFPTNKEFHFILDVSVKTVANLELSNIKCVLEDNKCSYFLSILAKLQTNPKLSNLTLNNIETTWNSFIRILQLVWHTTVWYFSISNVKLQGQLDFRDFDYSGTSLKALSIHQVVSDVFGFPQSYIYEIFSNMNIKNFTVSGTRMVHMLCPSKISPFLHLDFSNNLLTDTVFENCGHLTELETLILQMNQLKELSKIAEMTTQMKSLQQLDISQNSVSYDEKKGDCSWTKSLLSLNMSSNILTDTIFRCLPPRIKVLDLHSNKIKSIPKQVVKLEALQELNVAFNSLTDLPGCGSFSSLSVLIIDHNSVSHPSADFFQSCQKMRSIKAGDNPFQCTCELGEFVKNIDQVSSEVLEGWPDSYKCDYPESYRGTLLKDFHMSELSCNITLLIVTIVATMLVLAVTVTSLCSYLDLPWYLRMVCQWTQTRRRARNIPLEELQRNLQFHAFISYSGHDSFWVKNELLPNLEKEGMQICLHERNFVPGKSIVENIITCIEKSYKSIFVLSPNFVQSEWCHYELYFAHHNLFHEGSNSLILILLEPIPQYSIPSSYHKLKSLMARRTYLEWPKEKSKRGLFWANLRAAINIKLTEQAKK

[12] = Cmax in cynomolgus monkey plasma at 9 mg/kg, administered through oral gavage measured after 24 hrs; assay type: ADME, organism-based, Macaca fascicularis; parameters: dose 9 mg/kg, route oral

- Cp [1]: 245 ng/mL
- bioavailability [2]: 1.5%
- LED [3]: 1.6 µM
- Tmax [4]: 1 h
- solubility [5]: Soluble
- Tmax [6]: 1 to 2 h
- microsomal CLint at 1 µM [7]: < 4 µL/min/mg
- Tmax [8]: 1 h
- Tmax [9]: 0.5 h
- Cmax [10]: 1710 ng/g
- Activity [11]: inactive
- Cmax [12]: 34 ng/mL
Compound: CCCC[C@@H](CCO)Nc1nc(N)ncc1OC
